# Values of other authors in patent US20250042963A1, “METHODS FOR TREATING MYELOPROLIFERATIVE DISORDERS” (Acceleron Pharma Inc., priority 2015, published 2025).
# Tests used:
# [1] = tested on: patients with PV that did not respond to hydroxyurea; conditions: cited from earlier work
# [2] = tested on: myelofibrosis patients; conditions: cited from earlier work
# [3] = tested on: patients with a myeloproliferative disorder; conditions: symptomatic splenomegaly; cited from earlier work
# [4] = tested on: patients with MF; conditions: 82 evaluable patients with MF, three phase 1 and 2 trials; cited from earlier work
# [5] = tested on: JAK2V617F-positive cells; conditions: cited from earlier work
# [6] = tested on: patients with PMF or post-PV/ET MF; conditions: cited from earlier work
# [7] = tested on: MF patients; conditions: cited from earlier work
compound,measurement,setting,value
"CCN(CC)Cc1ccc2cc(COC(=O)Nc3ccc(C(=O)NO)cc3)ccc2c1 [Givinostat, givinostat]",complete or partial response,"[1]; randomized phase 2 trial, PV",approximately 50%
same,tolerability,[1]; the combination,generally well tolerated
Nc1cccc2c1CN(C1CCC(=O)NC1=O)C2=O (centres unmarked) [lenalidomide],effect on anemia,[2]; myelofibrosis patients with del(5q31)-associated anemia,"significant improvement, with resolution of anemia"
same,spleen responses / response rate,[3],33%
O=C1CCC(N2C(=O)c3ccccc3C2=O)C(=O)N1 (centres unmarked) [thalidomide],tolerability,"[2]; myelofibrosis patients, peripheral neuropathies, constipation, somnolence",poorly tolerated
same,spleen responses / response rate,[3],< 20%
Nc1cccc2c1C(=O)N(C1CCC(=O)NC1=O)C2=O (centres unmarked) [pomalidomide],anemia response according to IWG-MRT criteria,[4],27%
CO[C@H]1C[C@@H]2CC[C@@H](C)[C@@](O)(O2)C(=O)C(=O)N2CCCC[C@H]2C(=O)O[C@H]([C@H](C)C[C@@H]2CC[C@@H](OCCO)[C@H](OC)C2)CC(=O)[C@H](C)/C=C(\C)[C@@H](O)[C@@H](OC)C(=O)[C@H](C)C[C@H](C)/C=C/C=C/C=C/1C [everolimus],proliferation of JAK2V617F-positive cells,[5],decreased
same,complete resolution of pruritus,[6]; 30 evaluable patients,80%
same,complete resolution of systemic symptoms,[6]; 30 evaluable patients,69%
same,"response rate, European Myelofibrosis Network criteria",[6]; in vivo,60%
same,"response rate, International Working Group for Myelofibrosis Research and Treatment criteria",[6]; in vivo,23%
CCCCc1nc2cc(/C=C/C(=O)NO)ccc2n1CCN(CC)CC [pracinostat],IWG criteria anemia responses,[7]; MF patients,approximately 10%
same,reduction in spleen size (% of patients),"[7]; human, in vivo",27%
